From PMC4239038, “The Potent Cdc7-Dbf4 (DDK) Kinase Inhibitor XL413 Has Limited Activity in Many Cancer Cell Lines and Discovery of Potential New DDK Inhibitor Scaffolds” (PLoS ONE, 2014)
Several values for one entry are separate records, joined by “and”; a condition that tells them apart may be missing. Identical values can stand only once. Counter-ions that a name gives are not always drawn. Like-named read-outs stand apart in the source and are kept apart here.

Legend:
[1] = molecular target: T1, purified DDK (Homo sapiens, UniProt O00311); assay: DDK thermal stability shift assay (TSA); type: binding; settings: for ΔTm at 20 µM: library screen, 20 µM compound; for ΔTm: titration, beginning at a 1 µM concentration
T1 construct: His6-Smt3 (SUMO) (N, cleaved yes); made in house; host or cells: E. coli BL21-RIPL (pKT37, pETDuet-1 vector)
T1 sequence (O00311 whole entry): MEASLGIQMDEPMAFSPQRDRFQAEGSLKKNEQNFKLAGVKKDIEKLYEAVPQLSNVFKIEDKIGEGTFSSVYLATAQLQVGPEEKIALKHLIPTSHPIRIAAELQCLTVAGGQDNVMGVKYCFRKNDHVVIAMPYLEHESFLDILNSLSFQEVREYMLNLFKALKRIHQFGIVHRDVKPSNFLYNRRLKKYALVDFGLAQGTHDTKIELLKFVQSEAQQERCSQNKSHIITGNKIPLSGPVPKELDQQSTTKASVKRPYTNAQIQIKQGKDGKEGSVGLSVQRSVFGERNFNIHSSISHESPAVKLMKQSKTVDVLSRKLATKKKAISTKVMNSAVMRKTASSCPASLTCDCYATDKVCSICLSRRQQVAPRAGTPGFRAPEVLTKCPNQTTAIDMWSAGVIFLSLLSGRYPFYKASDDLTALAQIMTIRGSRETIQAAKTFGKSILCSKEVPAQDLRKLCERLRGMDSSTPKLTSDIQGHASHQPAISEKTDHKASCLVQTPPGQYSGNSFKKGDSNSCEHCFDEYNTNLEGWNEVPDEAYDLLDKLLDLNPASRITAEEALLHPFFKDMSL
T1 sequence (Q9UBU7 341-674 partner limits assumed): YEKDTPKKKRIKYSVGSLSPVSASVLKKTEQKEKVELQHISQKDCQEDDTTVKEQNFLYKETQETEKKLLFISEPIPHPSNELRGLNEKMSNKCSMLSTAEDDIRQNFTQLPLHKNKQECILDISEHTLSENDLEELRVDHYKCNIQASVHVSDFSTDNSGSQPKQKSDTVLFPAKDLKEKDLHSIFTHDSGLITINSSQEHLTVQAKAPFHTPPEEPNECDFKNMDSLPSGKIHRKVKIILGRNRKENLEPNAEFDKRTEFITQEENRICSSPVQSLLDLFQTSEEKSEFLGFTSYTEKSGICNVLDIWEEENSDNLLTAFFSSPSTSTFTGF

[2] = molecular target: T1, purified DDK; assay: In vitro (γ)-32P ATP DDK kinase assay (DDK auto-phosphorylation); type: biochemical; settings: increasing inhibitor concentrations
[3] = tested on: HCT116 (p53-/-) cells; assay: Cell viability, CellTiter-Glo; type: cell-based; settings: Homo sapiens, HCT-116, 72 hrs post drug addition
[4] = tested on: DDK; settings: read-out: DDK IC50 (in vitro), cited from earlier work
[5] = tested on: Mcm2 phosphorylation in Colo-205 cells; assay: Immunoblot of DDK-dependent Mcm2 phosphorylation; type: cell-based; settings: Colo-205, 5 µM, 24 hours
[6] = tested on: Mcm2 Serine 53 phosphorylation in HCC1954 cells; assay: Immunoblot of DDK-dependent Mcm2 phosphorylation; type: cell-based
Method: Whole cell extracts were prepared by re-suspending the pellets in RIPA buffer (150 mM NaCl, 1% NP-40, 0.5% sodium deoxycholate, 0.1% SDS, 50 mM Tris HCl, pH 8) containing protease inhibitors (100 µM PMSF, 1 mM Benzamide, 2.5 µg/ml Pepstatin A, 10 µg/ml Leupeptin, and 10 µg/ml Aprotinin) and phosphatase inhibitors (1 mM each NaF, Na3VO4 and Na4P2O7). Protein concentration was measured using the BCA protein assay kit (Pierce) according to manufacturer's protocol. Equal amounts of protein were subjected to SDS-PAGE and transferred to a nitrocellulose membrane (Millipore). Transfer efficiency and equal loading was confirmed by Ponceau S staining. Following primary and secondary antibody treatments, proteins were visualized using SuperSignal West Pico solutions (Thermo Scientific). Anti-Mcm2 and anti-S53-phospho-Mcm2 antibodies were purchased from Bethyl Laboratories; anti-β-actin was from Sigma; anti-mouse and anti-rabbit HRP antibodies were from GE Healthcare; and anti-Cdc7 and anti-Dbf4 antibodies were described previously.
Effective cellular uptake of the DDK inhibitor should compromise DDK activity in vivo. Among the many targets of DDK are components of the replicative Mcm2–7 helicase. Serine 53 of Mcm2 subunit is a well-characterized target site for DDK mediated phosphorylation. We quantitated levels of phosphorylation on this site as a measure of DDK activity in vivo. […] Cells were then harvested at 0, 24, 48, and 72 hours post drug addition to measure viable cells and Mcm2 phosphorylation by immunoblotting.

[7] = tested on: Colo-205 cells; set-up: method as in PMID 22560567; settings: Colo-205 ref 49; read-out: Cellular Proliferation IC50; cited from earlier work
[8] = tested on: Eight tumor cell lines; assay: Cell viability at 5 µM inhibitor, cell line panel; type: cell-based; settings: 72 hrs, relative to vehicle controls
[9] = tested on: Colo-205 cells; settings: Colo-205, 24 hours
[10] = tested on: Colo-205 cells; assay: Cell viability, CellTiter-Glo; type: cell-based; settings: Homo sapiens
[11] = tested on: HCT116 (p53+/+) cells; assay: Cell viability, CellTiter-Glo; type: cell-based; settings: for IC50: Homo sapiens, HCT-116, HCT116 (p53+/+), 72 hrs post drug addition
[12] = tested on: panel of 100 kinases; set-up: method as in PMID 22560567; settings: panel of 100 kinases ref 49; cited from earlier work
[13] = tested on: HCC1954 cells; assay: Cell viability, CellTiter-Glo; type: cell-based; settings: Homo sapiens
[14] = tested on: HCC1954 cells; assay: Caspase 3/7 activity (apoptosis); type: cell-based; settings: for Apoptosis induction (Caspase 3/7 activity): HCC1954, 24 hours
Method: Caspase 3/7 activity and viable cell number were then measured using the Caspase-Glo 3/7 assay (Promega) and CellTiter-Glo assay (Promega), respectively.

[15] = tested on: PKR; set-up: method as in PMID 12890478; settings: cited from earlier work
[16] = tested on: MDA-MB-453; assay: Cell viability at 5 µM inhibitor; settings: MDA-MB-453, 5 µM, 72 hrs, relative to vehicle
[17] = tested on: purified Cdk9; set-up: method as in PMID 18469809; settings: purified Cdk9 ref 43; cited from earlier work
[18] = tested on: MCF-7; assay: Cell viability at 5 µM inhibitor; settings: MCF-7, 5 µM, 72 hrs, relative to vehicle
[19] = tested on: human cell lines; settings: average from 61 human cell lines ref 42,43; read-out: Cellular Proliferation IC50; cited from earlier work
[20] = HCC1954, 72 h, HCC1954, 72 hrs post drug addition

| IC50 [2] | Compound | ΔTm at 20 µM [1] [°C] | IC50 [3] [nM] | Mcm2 phosphorylation [5] | Anti-proliferative activity [8] | Apoptosis induction (Caspase 3/7 activity) [9] | IC50 [11] [nM] | IC50 [13, 20] [nM] | Apoptosis induction (Caspase 3/7 activity) [14] | ΔTm [1] [°C] | further results |
| --- | --- | --- | --- | --- | --- | --- | --- | --- | --- | --- | --- |
| 1300 nM | Cc1ccc([N+](=O)[O-])cc1S(=O)(=O)N(C)/N=C/c1cnc2ccc(Br)cn12 [PI 3-Kα Inhibitor VIII, N-((1E)-(6-Bromoimidazo[1,2-a]pyridin-3-yl)methylene)-N'-methyl-N''-(2-methyl-5-nitrobenzene)sulfonohydrazide, HCl] | 2.6 |  |  |  |  |  |  |  |  |  |
| 22.7 nM | O=c1[nH]c([C@@H]2CCCN2)nc2c1oc1ccc(Cl)cc12 [XL413, (S)-8-chloro-2-(pyrrolidin-2-yl)benzofuro[3,2-d]pyrimidin-4(3H)-one] |  | 36600 | completely abolished Mcm2 phosphorylation | anti-proliferative only in the Colo-205 cells | induced apoptosis only in the Colo-205 cells | 28700 | 22900 | induced apoptosis only in the Colo-205 cells |  | IC50 ([4]; purified DDK ref 49): 3.4 nM; Mcm2 phosphorylation ([6]; HCC1954, 5 µM, 24 hrs): did not inhibit Mcm2 phosphorylation; Mcm2 phosphorylation ([6]; HCC1954, 5 µM, 72 hours): only a modest decrease in Mcm2 phosphorylation; IC50 [7]: 2690 nM; IC50 ([10]; COLO 205, 72 h, Colo-205, 72 hrs post drug addition): 1100 nM; IC50 ([10]; COLO 205, 72 h, Colo-205, 72 hrs, XL413 from commercial supplier MedKoo): 600 nM; IC50 higher than PHA-767491 ([11]; two additional colorectal tumor cell lines (HCT116 p53+/+ and p53-/-)): 40- to 60 fold; Selectivity for DDK [12]: highly selective for DDK; IC50 ([13]; HCC1954, 72 h, XL413 from commercial supplier MedKoo): 22400 nM |
| 860 nM | c1ccc2c(-c3ccncc3)c[nH]c2c1 [Rockout, 3-pyridin-4-yl-1H-indole] |  |  |  |  |  |  |  |  | ≥ 2 |  |
|  | O=C1NCCc2[nH]c(-c3ccncc3)cc21 [PHA-767491, 2-pyridin-4-yl-1,5,6,7-tetrahydro-pyrrolo[3,2-c]pyridin-4-one] |  | 1000 | completely abolished Mcm2 phosphorylation | significantly inhibited proliferation in all cell lines tested | induced apoptosis | 450 |  | induced apoptosis |  | IC50 ([4]; purified kinase ref 42,43): 10 nM; Inhibition of proliferation [16]: 2.5 fold; IC50 [17]: 34 nM; Mcm2 phosphorylation ([6]; HCC1954, 1 µM, 24 to 72 hours): very little residual Mcm2 phosphorylation; Mcm2 phosphorylation ([6]; HCC1954, 2 µM, by 24 hours): completely abolished Mcm2 phosphorylation; Inhibition of proliferation [18]: 2 fold; IC50 ([10]; Colo-205, 72 hrs post drug addition): 1300 nM; IC50 [19]: 3170 nM; IC50 ([13]; HCC1954, 72 hrs post drug addition): 640 nM |

| Compound | IC50 [2] | ΔTm at 20 µM [1] [°C] | IC50 [3] [nM] | Mcm2 phosphorylation [5] | Anti-proliferative activity [8] | Apoptosis induction (Caspase 3/7 activity) [9] | IC50 [11] [nM] | IC50 [13, 20] [nM] | Apoptosis induction (Caspase 3/7 activity) [14] | ΔTm [1] [°C] | further results |
| --- | --- | --- | --- | --- | --- | --- | --- | --- | --- | --- | --- |
| O=C1Nc2ccc3ncsc3c2/C1=C/c1cnc[nH]1 [PKR inhibitor, (8Z)-8-(1H-imidazol-5-ylmethylidene)-6H-pyrrolo[2,3-g][1,3]benzothiazol-7-one] | 67.5 nM and ~70 nM | 2.4 |  |  |  |  |  | 1700 |  | ≥ 2 | IC50 [15]: 210 nM; Mcm2 phosphorylation ([6]; HCC1954, 2 µM PKR inhibitor): strongly inhibited Mcm2 phosphorylation; Increase of Caspase 3/7 activity relative to the DMSO control ([14]; HCC1954, 2 µM, 24 hours): 20 fold |
| O=C1NC(=O)c2c1c1c3ccccc3n3c1c1c2c2ccccc2n1[C@H]1CC[C@@H]3O1 [SB 218078] | 19.3 nM |  |  |  |  |  |  | 2420 | low levels of apoptosis were induced | ≥ 2 | Mcm2 phosphorylation ([6]; HCC1954, SB 218078): modestly inhibits Mcm2 phosphorylation |
